Assay results: US20020147210A1, “Methods for delaying recurrence of herpes virus symptoms” (3M Innovative Properties Company, priority 2000, published 2002)

System: recurrent herpes genitalis (herpes virus)
Experiment: Randomized, double-blind vehicle-controlled clinical study of resiquimod gel formulations topically applied to herpetic lesions of the external genitalia
Format: in vivo, human
Conditions: topical, patients with recurrent herpes genitalis, 6 month observation period
Protocol: Propylene glycol (700 g) and resiquimod (4-amino-2-ethoxymethyl-α,α-dimethyl-1H-imidazo[4,5-c]quinoline-1-ethanol, 1.4 g) were added to a 1000 mL glass beaker. The resulting mixture was heated (about 55° C.) with stirring until all of the resiquimod was dissolved. The resulting solution was added to the mixing bowl of a ROSS LDM-4 mixer. Triacetin (11,968.7 g) was added to the mixing bowl and the resulting mixture was mixed for 10 minutes at 36 rpm. Colloidal silicon dioxide (1,330.0 g, AEROSIL®200 from Degussa, Frankfurt, Germany) was added in five parts. After each addition the resulting mixture was mixed at ambient pressure for 1 to 2 minutes at 36 rpm and then under vacuum (18 inches of Hg below ambient pressure, […]) for about 9 minutes at 36 rpm. The sides of the mixing bowl and the mixing blades were scraped. The formulation was mixed under vacuum (17 inches of Hg below ambient pressure, […]) for about 10 minutes at 36 rpm. The resulting gel contained 0.01% resiquimod, 5.0% propylene glycol, 9.5% colloidal silicon dioxide, and 85.49% triacetin.
Using the method described above, a second formulation was prepared by combining 7.0 g of resiquimod, 700.0 g of propylene glycol, 11963.0 g of triacetin and 1,330.0 g of colloidal silicon dioxide. The resulting gel contained 0.05% resiquimod, 5.0% propylene glycol, 9.5% colloidal silicon dioxide, and 85.45% triacetin.
A randomized, double-blind vehicle (placebo)-controlled study was performed to evaluate single and multi-weekly doses of the resiquimod formulations prepared above topically applied to herpetic lesions on the skin of the external genitalia.
52 otherwise healthy patients (20 to 60 years of age, inclusive) with a history of recurrent herpes genitalis (≧6 episodes per year) participated in the study. […] After passing screening, patients were enrolled into a 12-week eligibility period to qualify for treatment by virtue of experiencing a herpetic recurrence. During the eligibility period patients' qualified for the treatment period by coming to the study site for treatment visit one within 24 hours of a recurrence. At this visit patients were stratified by sex and enrolled sequentially into an active treatment or vehicle treatment regimen.
The treatment period began with the first treatment visit and ended with the final treatment visit. The treatment groups were 0.05 percent resiquimod containing formulation or formulation alone (vehicle) 1×/week for 4 weeks; 0.05 percent resiquimod containing formulation or formulation alone 2×/week for 3 weeks; 0.01 percent resiquimod formulation or formulation alone 2×/week for 3 weeks; or 0.01 percent resiquimod formulation or formulation alone 3×/week for 3 weeks. […]

CCOCc1nc2c(N)nc3ccccc3c2n1CC(C)(C)O [Resiquimod, 4-amino-α,α-dimethyl-2-ethoxymethyl-1H-imidazo[4,5-c]quinoline-1-ethanol]
Median No. Days to Recurrence after treatment cessation (0.01% resiquimod gel, 2×/wk, 3 weeks): 172.5 days
Median No. Days to Recurrence after treatment cessation (0.01% resiquimod gel, 3×/wk, 3 weeks): >195 days
Median No. Days to Recurrence after treatment cessation (0.05% resiquimod gel, 1×/wk, 4 weeks): >60 days
Median No. Days to Recurrence after treatment cessation (0.05% resiquimod gel, 2×/wk, 3 weeks): 105 days
